The source of these data is patent publication US6335363B1, “Use of inhibitors of the KQTI channel and methods of controlling and treating diseases caused by helminths and ectoparasites” (Aventis Pharma Deutschland GmbH, priority 1998, dated 2002).

The structures appear in SMILES notation.

The test system of this assay is KQT1 channel. Put plainly: Activity against KQT1 in Xenopus oocytes (two-microelectrode voltage clamp). Format: cell-based, Caenorhabditis elegans. On the set-up: dose or concentration left out as unconfirmed. To be noted: KQT1 expressed in Xenopus oocytes; slowly activated potassium current. As for the experimental part:
To test the ct of IKS channel blockers on the KQT1 channel, electrophysiological studies were carried out on Xenopus oocytes which express the KQT1 channel (specific IKS channel of the nematode Caenorhabditis elegans). An adult female frog (Xenopus laevis) was […] oocytes of all development stages were removed from the ovarian bags. Oocytes of the development stages V and VI were selected; using a nanoliter injector mounted in a micromanipulator, 10 ng of the KQT1-specific m-RNA were injected into each oocyte. After 1-4 days, sufficient KQT1 channels were expressed for it to be possible to measure the corresponding currents. For measuring the slowly activated potassium currents under constant intracellular conditions, the two-microelectrode voltage clamp method was employed. This method is based on operating with 2 intracellular microelectrodes; the first electrode measures the membrane potential against a reference electrode, the second electrode is used to inject current which is necessary to maintain a desired potential. During the measurement, the holding potential was adjusted to -80 mV, which corresponds to the open-circuit membrane potential. The electrophysiological measuring stand comprised a vibration-damped experiment table on which were mounted a purpose-made measuring chamber, 2 micromanipulators, in each case with a preamplifier and a holder for injection microelectrodes, and a stereomicroscope. The complete measuring stand was surrounded by a Faraday cage to minimize electrical disturbances during the measurement. During the measurement, the oocyte was suspended in a solution of ND96 buffer. To activate the voltage-dependent IKS channel, the oocyte membrane was depolarized by a voltage jump from the holding potential (-80 mV) to 0 mV, and this state was maintained for 10 seconds before the holding potential was reestablished. The time profile of the measuring protocol was repeated every 45 s. During the depolarization phase, the slowly activated potassium current was measured.
As a reminder, the Inhibition is the relative decrease from the control value, in per cent. Turning to `CCS(=O)(=O)N(C)C1CCCCc2ccc(F)cc21` (stereo not drawn), the Inhibition came to 78%.
Under `CCS(=O)(=O)N(CC(=O)Nc1ccncc1)C1CC(C)(C)Oc2ccc(F)cc21` (stereo not drawn) [2-[ETHANESULFONYL-(6- FLUORO-2,2-DIMETHYL- CHROMAN-4-YL)-AMINO]- N-PYRIDIN-4-YL- ACETAMIDE] stands 35%; under `CCS(=O)(=O)N(C)C1CC(C)(C)Oc2cc(OC)c(OC)cc21` (stereo not drawn) [4-N-ETHYLSULFONYL-N- METHYLAMINO-6,7 DIMETHOXY-2,2- DIMETHYLCHROMANE], 30%.
`CCS(=O)(=O)N(CCCC(F)(F)F)C1CC(C)(C)Oc2cc(Cl)c(Cl)cc21` (stereo not drawn) [6,7-DICHLORO-4-[N- ETHYLSULFONYL-N- (4,4,4-TRIFLUORO- BUTYL)AMINO]-2,2- DIMETHYLCHROMANE] returned an Inhibition of 88%.
As to `CCS(=O)(=O)N(C)C1c2cc(C#N)ccc2OC(C)(C)C1O` (stereo not drawn) [6-CYANO-4-TRANS-(N- ETHYLSULFONYL-N- METHYLAMINO)-3 HYDROXY-2,2- DIMETHYLCHROMANE], the Inhibition worked out at 40%.
Under `CCS(=O)(=O)N(C)C1CC(C)(C)Oc2cc(Cl)c(F)cc21` (stereo not drawn) [7-CHLORO-4-N- ETHYLSULFONYL-N- METHYLAMINO-6- FLUORO-2,2- DIMETHYLCHROMANE] stands 89%; under `CCS(=O)(=O)N(CC(=O)NCCN(C)C)C1CC(C)(C)Oc2ccc(F)cc21` (stereo not drawn) [N-(2-DIMETHYLAMINO- ETHYL)-2-[ETHANE- SULFONYL-(6-FLUORO- 2,2-DIMETHYL-CHROMAN- 4-YL)-AMINO]- ACETAMIDE], 22%; under `CN(C1=CC(C)(C)Oc2ccc(OCCCC(F)(F)F)cc21)S(C)(=O)=O` [N-[2,2-DIMETHYL-6-(4,4,4- TRIFLUOROBUTOXY)-2H- CHROMEN-4-YL]-N- METHYL- METHANESULFONAMIDE], 92%.
Next, `CCS(=O)(=O)N(CC(=O)NCCN(C)Cc1ccccc1)C1CC(C)(C)Oc2ccc(F)cc21` (stereo not drawn) [N-[2-(BENZYL-METHYL- AMINO)-ETHYL]-2- [ETHANESULFONYL-(6- FLUORO-2,2-DIMETHYL- CHROMAN-4-YL)-AMINO]- ACETAMIDE]: 36%.
